How the values were obtained:
[1] = molecular target: PknA (Mycobacterium tuberculosis, UniProt P9WI83)
[2] = molecular target: PknG (Mycobacterium tuberculosis, UniProt P9WI73)
[3] = molecular target: PknJ (Mycobacterium tuberculosis, UniProt P9WI67)
[4] = molecular target: PknE (Mycobacterium tuberculosis, UniProt P9WI77)
[5] = molecular target: PknH (Mycobacterium tuberculosis, UniProt P9WI71)
[6] = molecular target: PknD (GST-PknD) (Mycobacterium tuberculosis, UniProt P9WI79)
PknD (GST-PknD), sequence (P9WI79 whole entry): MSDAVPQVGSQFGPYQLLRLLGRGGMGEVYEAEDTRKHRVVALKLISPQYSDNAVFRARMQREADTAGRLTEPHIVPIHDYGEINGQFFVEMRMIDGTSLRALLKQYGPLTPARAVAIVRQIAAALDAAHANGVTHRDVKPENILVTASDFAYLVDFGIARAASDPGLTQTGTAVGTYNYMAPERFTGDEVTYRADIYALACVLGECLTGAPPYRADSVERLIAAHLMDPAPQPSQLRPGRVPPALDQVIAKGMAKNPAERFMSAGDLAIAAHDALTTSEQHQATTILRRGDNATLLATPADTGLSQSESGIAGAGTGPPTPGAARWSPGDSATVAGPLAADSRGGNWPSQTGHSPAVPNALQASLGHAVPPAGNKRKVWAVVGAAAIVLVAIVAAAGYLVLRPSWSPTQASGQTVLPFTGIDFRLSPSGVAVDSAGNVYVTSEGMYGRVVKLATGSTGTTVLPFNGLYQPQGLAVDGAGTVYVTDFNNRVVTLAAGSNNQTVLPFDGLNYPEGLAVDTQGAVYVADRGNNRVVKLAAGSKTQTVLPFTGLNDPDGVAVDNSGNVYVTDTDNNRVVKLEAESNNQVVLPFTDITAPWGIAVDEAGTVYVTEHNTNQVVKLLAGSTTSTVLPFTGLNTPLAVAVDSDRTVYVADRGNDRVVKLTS

PknA, sequence (P9WI83 whole entry): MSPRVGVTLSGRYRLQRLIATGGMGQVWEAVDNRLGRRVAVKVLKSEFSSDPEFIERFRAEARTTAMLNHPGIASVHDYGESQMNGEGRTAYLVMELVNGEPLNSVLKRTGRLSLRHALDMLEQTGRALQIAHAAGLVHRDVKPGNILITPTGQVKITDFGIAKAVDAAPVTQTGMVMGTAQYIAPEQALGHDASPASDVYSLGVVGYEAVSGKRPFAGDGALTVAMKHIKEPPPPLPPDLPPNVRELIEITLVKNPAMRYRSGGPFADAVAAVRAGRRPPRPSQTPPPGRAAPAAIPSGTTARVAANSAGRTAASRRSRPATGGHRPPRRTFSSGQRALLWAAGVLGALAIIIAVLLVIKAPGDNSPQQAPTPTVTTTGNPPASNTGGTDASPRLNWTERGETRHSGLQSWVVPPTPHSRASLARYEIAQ
PknJ, sequence (P9WI67 whole entry): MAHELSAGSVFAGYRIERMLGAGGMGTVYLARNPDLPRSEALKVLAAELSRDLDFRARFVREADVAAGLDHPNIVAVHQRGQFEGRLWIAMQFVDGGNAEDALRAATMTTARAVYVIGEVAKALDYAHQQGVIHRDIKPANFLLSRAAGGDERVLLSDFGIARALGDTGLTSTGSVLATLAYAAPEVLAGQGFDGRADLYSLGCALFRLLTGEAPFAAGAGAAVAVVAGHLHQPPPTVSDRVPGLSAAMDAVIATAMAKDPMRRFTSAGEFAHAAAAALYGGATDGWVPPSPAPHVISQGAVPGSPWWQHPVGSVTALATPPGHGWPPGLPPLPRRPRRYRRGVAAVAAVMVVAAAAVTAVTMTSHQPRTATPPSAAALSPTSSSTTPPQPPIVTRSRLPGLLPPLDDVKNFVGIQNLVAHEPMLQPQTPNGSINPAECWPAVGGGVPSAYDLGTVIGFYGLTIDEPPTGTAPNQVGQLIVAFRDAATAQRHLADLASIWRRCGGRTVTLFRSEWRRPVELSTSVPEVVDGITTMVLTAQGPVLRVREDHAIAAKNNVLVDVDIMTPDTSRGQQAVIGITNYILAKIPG
PknE, sequence (P9WI77 whole entry): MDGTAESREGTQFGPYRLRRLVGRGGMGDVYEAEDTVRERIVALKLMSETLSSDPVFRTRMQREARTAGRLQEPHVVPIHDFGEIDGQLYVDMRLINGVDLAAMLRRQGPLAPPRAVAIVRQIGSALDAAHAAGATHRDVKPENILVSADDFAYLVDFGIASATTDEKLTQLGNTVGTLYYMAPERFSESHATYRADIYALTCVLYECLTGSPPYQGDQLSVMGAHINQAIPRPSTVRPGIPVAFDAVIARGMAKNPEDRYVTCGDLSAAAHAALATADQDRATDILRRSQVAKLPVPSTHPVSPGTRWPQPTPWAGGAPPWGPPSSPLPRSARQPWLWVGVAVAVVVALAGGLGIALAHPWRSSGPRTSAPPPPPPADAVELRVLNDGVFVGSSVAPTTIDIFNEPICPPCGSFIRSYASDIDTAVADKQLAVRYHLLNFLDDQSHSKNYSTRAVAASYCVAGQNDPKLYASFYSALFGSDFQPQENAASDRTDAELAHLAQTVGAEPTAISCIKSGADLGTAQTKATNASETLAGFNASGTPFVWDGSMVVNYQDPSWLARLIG
PknH, sequence (P9WI71 whole entry): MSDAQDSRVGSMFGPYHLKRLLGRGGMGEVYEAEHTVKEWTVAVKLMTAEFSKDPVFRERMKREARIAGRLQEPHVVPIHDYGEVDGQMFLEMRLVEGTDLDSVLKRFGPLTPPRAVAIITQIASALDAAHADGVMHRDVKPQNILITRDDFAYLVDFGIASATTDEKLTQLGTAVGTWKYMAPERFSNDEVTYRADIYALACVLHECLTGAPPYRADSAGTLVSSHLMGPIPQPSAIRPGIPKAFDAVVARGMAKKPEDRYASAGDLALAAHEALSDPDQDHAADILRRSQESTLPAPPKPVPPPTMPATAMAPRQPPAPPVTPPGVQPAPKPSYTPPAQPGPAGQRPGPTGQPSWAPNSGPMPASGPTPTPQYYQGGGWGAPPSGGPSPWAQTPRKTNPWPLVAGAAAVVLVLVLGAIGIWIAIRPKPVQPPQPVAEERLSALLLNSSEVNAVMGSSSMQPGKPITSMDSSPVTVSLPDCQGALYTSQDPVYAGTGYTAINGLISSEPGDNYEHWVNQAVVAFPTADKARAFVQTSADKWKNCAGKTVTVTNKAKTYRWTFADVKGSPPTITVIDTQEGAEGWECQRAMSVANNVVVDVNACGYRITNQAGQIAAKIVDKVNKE
PknG, sequence (P9WI73 whole entry): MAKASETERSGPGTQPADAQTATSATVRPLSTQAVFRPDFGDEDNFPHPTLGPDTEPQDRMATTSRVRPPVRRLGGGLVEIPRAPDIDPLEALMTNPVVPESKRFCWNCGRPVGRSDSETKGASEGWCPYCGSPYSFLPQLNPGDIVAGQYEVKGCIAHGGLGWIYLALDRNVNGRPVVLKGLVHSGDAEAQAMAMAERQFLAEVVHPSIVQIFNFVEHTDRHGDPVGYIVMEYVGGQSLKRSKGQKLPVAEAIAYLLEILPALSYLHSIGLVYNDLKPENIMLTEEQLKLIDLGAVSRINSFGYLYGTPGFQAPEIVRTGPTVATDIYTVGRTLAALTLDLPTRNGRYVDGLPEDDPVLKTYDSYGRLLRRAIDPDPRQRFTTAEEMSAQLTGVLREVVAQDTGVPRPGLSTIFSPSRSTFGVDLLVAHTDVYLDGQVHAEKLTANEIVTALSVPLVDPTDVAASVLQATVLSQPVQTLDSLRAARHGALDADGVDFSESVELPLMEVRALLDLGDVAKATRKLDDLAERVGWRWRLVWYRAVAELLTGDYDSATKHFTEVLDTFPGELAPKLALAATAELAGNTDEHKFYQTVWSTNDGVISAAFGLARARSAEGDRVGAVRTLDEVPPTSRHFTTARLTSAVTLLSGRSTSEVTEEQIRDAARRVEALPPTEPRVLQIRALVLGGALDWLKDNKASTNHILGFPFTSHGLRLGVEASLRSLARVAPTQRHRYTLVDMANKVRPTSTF

## Nc1ncnc2c1ncn2[C@@H]1O[C@H](COP(=O)(O)OP(=O)(O)OP(=O)(O)O)[C@@H](O)[C@H]1O [[γ-^33P]ATP]
[1]
  in vitro radiolabelled phosphorylation, SDS-PAGE autoradiography: PknA, PknD, PknE, PknG, PknH and PknJ phosphorylated the (His)6-MDH
[2]
  in vitro radiolabelled phosphorylation, SDS-PAGE autoradiography: PknA, PknD, PknE, PknG, PknH and PknJ phosphorylated the (His)6-MDH
[3]
  in vitro radiolabelled phosphorylation, SDS-PAGE autoradiography: PknA, PknD, PknE, PknG, PknH and PknJ phosphorylated the (His)6-MDH
[4]
  in vitro radiolabelled phosphorylation, SDS-PAGE autoradiography: PknA, PknD, PknE, PknG, PknH and PknJ phosphorylated the (His)6-MDH
[5]
  in vitro radiolabelled phosphorylation, SDS-PAGE autoradiography: PknA, PknD, PknE, PknG, PknH and PknJ phosphorylated the (His)6-MDH
[6]
  in vitro radiolabelled phosphorylation, SDS-PAGE autoradiography: the MDH was phosphorylated by PknD, but could not be autophosphorylated

From publication PMC4393303 (PLoS ONE, 2015)
